Data taken from the OligoGym collection.
HELM strings list units from the 5' end as sugar, base in round brackets, then linkage (d deoxyribose, r ribose, m 2'-O-methyl, p phosphodiester). Strings are as the collection lists them; they lack the last nucleoside at the 3' end of the tested compound. [moe] = 2'-O-(2-methoxyethyl) (MOE); [sp] = phosphorothioate linkage; [m5C] = 5-methylcytosine

Molecular target: C9ORF72
Assay: mouse, dose not given
Conditions: ASO

Substance	3 h FOB score [score 0-7]
RNA1{[moe]([m5C])[sp].[moe](G)p.[moe](G)p.[moe]([m5C])p.[moe]([m5C])p.[moe]([m5C])p.d([m5C])[sp].d(T)[sp].d(A)[sp].d(G)[sp].d([m5C])[sp].d(G)[sp].d([m5C])[sp].d(G)[sp].d([m5C])[sp].d(G)[sp].[moe](A)p.[moe]([m5C])[sp].[moe](T)}$$$$ (last 3' nucleoside missing)	1.25
RNA1{[moe](G)[sp].[moe](G)[sp].[moe](G)[sp].[moe](A)[sp].[moe]([m5C])[sp].d(A)[sp].d([m5C])[sp].d(T)[sp].d(A)[sp].d([m5C])[sp].d(A)[sp].d(A)[sp].d(G)[sp].d(G)[sp].d(T)[sp].[moe](A)[sp].[moe](G)[sp].[moe](T)[sp].[moe](A)}$$$$ (last 3' nucleoside missing)	5.67
RNA1{[moe](G)[sp].[moe](G)p.[moe](T)p.[moe](T)[sp].d(A)[sp].d(A)[sp].d(T)[sp].d([m5C])[sp].d(T)[sp].d(T)[sp].d(T)[sp].d(A)[sp].[moe](T)p.[moe]([m5C])p.[moe](A)p.[moe](G)[sp].[moe](G)}$$$$ (last 3' nucleoside missing)	1
RNA1{[moe]([m5C])[sp].[moe](G)p.[moe](G)p.[moe]([m5C])[sp].d([m5C])[sp].d([m5C])[sp].d([m5C])[sp].d(T)[sp].d(A)[sp].d(G)[sp].d([m5C])[sp].d(G)[sp].[moe]([m5C])p.[moe](G)p.[moe]([m5C])p.[moe](G)[sp].[moe](A)}$$$$ (last 3' nucleoside missing)	7
RNA1{[moe]([m5C])[sp].[moe](G)p.[moe](G)p.[moe]([m5C])p.d([m5C])[sp].d([m5C])[sp].d([m5C])[sp].d(T)[sp].d(A)[sp].d(G)[sp].d([m5C])[sp].d(G)[sp].d([m5C])[sp].[moe](G)p.[moe]([m5C])p.[moe](G)p.[moe](A)[sp].[moe]([m5C])}$$$$ (last 3' nucleoside missing)	5.25
RNA1{[moe]([m5C])[sp].[moe](G)p.[moe](G)p.[moe]([m5C])p.[moe]([m5C])p.[moe]([m5C])p.d([m5C])[sp].d(T)[sp].d(A)[sp].d(G)[sp].d([m5C])[sp].d(G)[sp].d([m5C])[sp].d(G)[sp].d([m5C])[sp].[moe](G)p.[moe](A)[sp].[moe]([m5C])}$$$$ (last 3' nucleoside missing)	3
RNA1{[moe]([m5C])[sp].[moe](A)p.[moe](G)p.[moe](G)[sp].d([m5C])[sp].d(T)[sp].d(G)[sp].d([m5C])[sp].d(G)[sp].d(G)[sp].d(T)[sp].d(T)[sp].[moe](G)p.[moe](T)p.[moe](T)p.[moe](T)[sp].[moe]([m5C])}$$$$ (last 3' nucleoside missing)	3.5
RNA1{[moe](G)[sp].[moe]([m5C])p.[moe]([m5C])p.[moe](T)p.[moe](T)p.[moe](A)p.[moe]([m5C])[sp].d(T)[sp].d([m5C])[sp].d(T)[sp].d(A)[sp].d(G)[sp].d(G)[sp].d(A)[sp].d([m5C])[sp].[moe]([m5C])[sp].[moe](A)}$$$$ (last 3' nucleoside missing)	2.5
RNA1{[moe]([m5C])[sp].[moe]([m5C])p.[moe]([m5C])p.[moe](T)p.[moe](A)p.[moe](G)p.d([m5C])[sp].d(G)[sp].d([m5C])[sp].d(G)[sp].d([m5C])[sp].d(G)[sp].d(A)[sp].d([m5C])[sp].d(T)[sp].d([m5C])[sp].[moe]([m5C])p.[moe](T)[sp].[moe](G)}$$$$ (last 3' nucleoside missing)	1.25
RNA1{[moe]([m5C])[sp].[moe]([m5C])p.[moe]([m5C])p.[moe]([m5C])p.d(T)[sp].d(A)[sp].d(G)[sp].d([m5C])[sp].d(G)[sp].d([m5C])[sp].d(G)[sp].d([m5C])[sp].d(G)[sp].d(A)[sp].[moe]([m5C])p.[moe](T)p.[moe]([m5C])p.[moe]([m5C])[sp].[moe](T)}$$$$ (last 3' nucleoside missing)	3.75
RNA1{[moe](G)[sp].[moe]([m5C])p.[moe](T)p.[moe](G)p.[moe]([m5C])p.[moe](G)[sp].d(G)[sp].d(T)[sp].d(T)[sp].d(G)[sp].d(T)[sp].d(T)[sp].d(T)[sp].d([m5C])[sp].[moe]([m5C])p.[moe]([m5C])[sp].[moe](T)}$$$$ (last 3' nucleoside missing)	5.5
RNA1{[moe](T)[sp].[moe](G)p.[moe](G)p.d(T)[sp].d(T)[sp].d(A)[sp].d(A)[sp].d(T)[sp].d([m5C])[sp].d(T)[sp].d(T)[sp].d(T)[sp].d(A)[sp].[moe](T)p.[moe]([m5C])p.[moe](A)p.[moe](G)p.[moe](G)[sp].[moe](T)}$$$$ (last 3' nucleoside missing)	0.25
RNA1{[moe]([m5C])[sp].[moe](G)p.[moe](G)p.[moe]([m5C])p.d([m5C])[sp].d([m5C])[sp].d([m5C])[sp].d(T)[sp].d(A)[sp].d(G)[sp].d([m5C])[sp].d(G)[sp].d([m5C])[sp].d(G)[sp].[moe]([m5C])p.[moe](G)p.[moe](A)p.[moe]([m5C])[sp].[moe](T)}$$$$ (last 3' nucleoside missing)	1.75
RNA1{[moe](G)[sp].[moe]([m5C])p.[moe](T)p.[moe](G)[sp].d([m5C])[sp].d(G)[sp].d(G)[sp].d(T)[sp].d(T)[sp].d(G)[sp].d(T)[sp].d(T)[sp].[moe](T)p.[moe]([m5C])p.[moe]([m5C])p.[moe]([m5C])[sp].[moe](T)}$$$$ (last 3' nucleoside missing)	5
RNA1{[moe](G)[sp].[moe]([m5C])p.[moe]([m5C])p.[moe](T)p.d(T)[sp].d(A)[sp].d([m5C])[sp].d(T)[sp].d([m5C])[sp].d(T)[sp].d(A)[sp].d(G)[sp].d(G)[sp].d(A)[sp].[moe]([m5C])p.[moe]([m5C])p.[moe](A)p.[moe](A)[sp].[moe](G)}$$$$ (last 3' nucleoside missing)	5.75
RNA1{[moe](T)[sp].[moe]([m5C])p.[moe](T)p.[moe](G)p.[moe](T)p.[moe]([m5C])p.[moe](T)p.d(T)[sp].d(T)[sp].d(G)[sp].d(G)[sp].d(A)[sp].d(G)[sp].d([m5C])[sp].d([m5C])[sp].d([m5C])[sp].d(A)[sp].[moe](A)[sp].[moe](A)}$$$$ (last 3' nucleoside missing)	2
RNA1{[moe]([m5C])[sp].[moe]([m5C])p.[moe](G)p.[moe](G)p.d([m5C])[sp].d([m5C])[sp].d([m5C])[sp].d([m5C])[sp].d(T)[sp].d(A)[sp].d(G)[sp].d([m5C])[sp].d(G)[sp].[moe]([m5C])p.[moe](G)p.[moe]([m5C])p.[moe](G)[sp].[moe](A)}$$$$ (last 3' nucleoside missing)	6
RNA1{[moe]([m5C])[sp].[moe](T)p.[moe](G)p.[moe]([m5C])p.d(G)[sp].d(A)[sp].d(T)[sp].d([m5C])[sp].d([m5C])[sp].d([m5C])[sp].d([m5C])[sp].d(A)[sp].d(T)[sp].d(T)[sp].[moe]([m5C])p.[moe]([m5C])p.[moe](A)p.[moe](G)[sp].[moe](T)}$$$$ (last 3' nucleoside missing)	1.75
RNA1{[moe](T)[sp].[moe](G)p.[moe](G)p.[moe](T)[sp].d(T)[sp].d(A)[sp].d(A)[sp].d(T)[sp].d([m5C])[sp].d(T)[sp].d(T)[sp].d(T)[sp].[moe](A)p.[moe](T)p.[moe]([m5C])p.[moe](A)[sp].[moe](G)}$$$$ (last 3' nucleoside missing)	3.25
RNA1{[moe](A)[sp].[moe](G)p.[moe](G)p.[moe]([m5C])p.d(T)[sp].d(G)[sp].d([m5C])[sp].d(G)[sp].d(G)[sp].d(T)[sp].d(T)[sp].d(G)[sp].d(T)[sp].[moe](T)p.[moe](T)p.[moe]([m5C])p.[moe]([m5C])[sp].[moe]([m5C])}$$$$ (last 3' nucleoside missing)	6.5
RNA1{[moe](G)[sp].[moe]([m5C])p.[moe]([m5C])p.[moe]([m5C])[sp].d([m5C])[sp].d(T)[sp].d(A)[sp].d(G)[sp].d([m5C])[sp].d(G)[sp].d([m5C])[sp].d(G)[sp].[moe]([m5C])p.[moe](G)p.[moe](A)p.[moe]([m5C])[sp].[moe](T)}$$$$ (last 3' nucleoside missing)	1.5
RNA1{[moe]([m5C])[sp].[moe]([m5C])p.[moe]([m5C])p.[moe](T)p.d(A)[sp].d(G)[sp].d([m5C])[sp].d(G)[sp].d([m5C])[sp].d(G)[sp].d([m5C])[sp].d(G)[sp].d(A)[sp].d([m5C])[sp].[moe](T)p.[moe]([m5C])p.[moe]([m5C])p.[moe](T)[sp].[moe](G)}$$$$ (last 3' nucleoside missing)	1.75
RNA1{[moe](A)[sp].[moe](G)p.[moe](G)p.[moe]([m5C])p.[moe](T)p.[moe](G)p.d([m5C])[sp].d(G)[sp].d(G)[sp].d(T)[sp].d(T)[sp].d(G)[sp].d(T)[sp].d(T)[sp].d(T)[sp].[moe]([m5C])p.[moe]([m5C])[sp].[moe]([m5C])}$$$$ (last 3' nucleoside missing)	6
RNA1{[moe](G)[sp].[moe](T)p.[moe](T)p.[moe](A)p.[moe](A)p.[moe](T)[sp].d([m5C])[sp].d(T)[sp].d(T)[sp].d(T)[sp].d(A)[sp].d(T)[sp].d([m5C])[sp].d(A)[sp].[moe](G)p.[moe](G)[sp].[moe](T)}$$$$ (last 3' nucleoside missing)	3
RNA1{[moe](T)[sp].[moe]([m5C])p.[moe](T)[sp].d(G)[sp].d(T)[sp].d([m5C])[sp].d(T)[sp].d(T)[sp].d(T)[sp].d(G)[sp].d(G)[sp].[moe](A)p.[moe](G)p.[moe]([m5C])p.[moe]([m5C])p.[moe]([m5C])[sp].[moe](A)}$$$$ (last 3' nucleoside missing)	4
RNA1{[moe](G)[sp].[moe](G)p.[moe](T)p.[moe](T)p.[moe](A)p.[moe](A)[sp].d(T)[sp].d([m5C])[sp].d(T)[sp].d(T)[sp].d(T)[sp].d(A)[sp].d(T)[sp].d([m5C])[sp].[moe](A)p.[moe](G)[sp].[moe](G)}$$$$ (last 3' nucleoside missing)	1.25
